Our source for the IC50 values is patent publication US8754071B2 (priority 2011, dated 2014).

T1 sequence (P10721 26-976): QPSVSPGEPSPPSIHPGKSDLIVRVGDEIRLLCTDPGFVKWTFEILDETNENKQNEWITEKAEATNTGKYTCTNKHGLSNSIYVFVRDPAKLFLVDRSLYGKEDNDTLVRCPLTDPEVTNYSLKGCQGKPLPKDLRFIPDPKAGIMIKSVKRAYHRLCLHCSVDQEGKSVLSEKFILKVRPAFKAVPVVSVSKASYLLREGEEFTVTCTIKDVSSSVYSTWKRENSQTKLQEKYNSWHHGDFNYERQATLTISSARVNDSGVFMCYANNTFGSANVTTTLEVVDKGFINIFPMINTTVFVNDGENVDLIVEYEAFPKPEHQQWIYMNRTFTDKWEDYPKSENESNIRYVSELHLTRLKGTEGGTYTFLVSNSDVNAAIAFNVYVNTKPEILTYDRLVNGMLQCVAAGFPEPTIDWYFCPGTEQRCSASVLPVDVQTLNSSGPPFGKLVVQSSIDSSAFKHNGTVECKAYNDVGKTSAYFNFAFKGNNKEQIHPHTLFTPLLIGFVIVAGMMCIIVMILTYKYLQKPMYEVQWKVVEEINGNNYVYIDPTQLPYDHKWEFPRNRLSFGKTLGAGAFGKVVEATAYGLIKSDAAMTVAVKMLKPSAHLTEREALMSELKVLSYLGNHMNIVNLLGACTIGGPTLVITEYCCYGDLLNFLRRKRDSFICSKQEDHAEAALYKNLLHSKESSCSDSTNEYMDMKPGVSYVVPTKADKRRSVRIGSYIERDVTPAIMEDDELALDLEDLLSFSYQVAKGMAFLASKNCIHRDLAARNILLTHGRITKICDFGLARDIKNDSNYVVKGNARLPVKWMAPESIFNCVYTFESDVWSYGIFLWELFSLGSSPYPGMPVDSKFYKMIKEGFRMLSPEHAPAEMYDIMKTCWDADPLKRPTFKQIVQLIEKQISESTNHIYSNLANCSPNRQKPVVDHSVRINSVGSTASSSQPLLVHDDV

The test addresses T1, c-kit (Homo sapiens, UniProt P10721).
T1 construct: human Mo7e cells which endogenously express c-kit; endogenous in cells; host or cells: human Mo7e cells (promegakaryocytic leukemia line), stimulated with human recombinant SCF
Put plainly: Mo7e cell proliferation assay (SCF dependent proliferation). It is filed as cell-based. The following applies: Table 1; human Mo7e cells stimulated with SCF, 48 hours, CellTiter Glo; 1% FBS; read-out: c-kit (Mo7e). The protocol:
Mo7e Cell Proliferation Assay The compounds of Table 1 and Table 2 were tested for inhibition of SCF dependent proliferation using human Mo7e cells which endogenously express c-kit in a 384 well format. […] After 48 hours of incubation at 37° C., cell viability was measured by adding 25 uL of CellTiter Glo (Promega) to the cells and the luminescence was measured by a […] camera (Molecular Devices). […] The IC50 value is given as that concentration of the test compound in question that provoke a response halfway between the baseline and maximum responses.
With `COC(=O)NC1(c2nc(-c3ccc(C)c(NC(=O)c4cnc5ccccn45)c3)no2)COC1` [F26, methyl (3-(3-(3-(imidazo[1,2-a]pyridine-3-carboxamido)-4-methylphenyl)-1,2,4-oxadiazol-5-yl)oxetan-3-yl)carbamate], the IC50 worked out at 103 nM.
Then `CC(C)(C)OC(=O)N1CC(c2nc(-c3ccc(F)c(NC(=O)c4cnc5ccccn45)c3)no2)C1` [F27, tert-butyl 3-(3-(4-fluoro-3-(imidazo[1,2-a]pyridine-3-carboxamido)phenyl)-1,2,4-oxadiazol-5-yl)azetidine-1-carboxylate], with 997 nM; and `CCS(=O)(=O)N1CC(c2nc(-c3ccc(F)c(NC(=O)c4cnc5ccccn45)c3)no2)C1` [F28, N-(5-(5-(1-(ethylsulfonyl)azetidin-3-yl)-1,2,4-oxadiazol-3-yl)-2-fluorophenyl)imidazo[1,2-a]pyridine-3-carboxamide], with 120 nM; and `Cc1ccc(-c2noc(CN3CCC(F)(F)C3)n2)cc1NC(=O)c1cnc2ccccn12` [F29], with 16 nM.
For `Cc1ccc(-c2noc(CN3CCC(F)(F)CC3)n2)cc1NC(=O)c1cnc2ccccn12` [F30], the IC50 is 20 nM.
Then `CCCCS(=O)(=O)N1CC(c2nc(-c3ccc(C)c(NC(=O)c4cnc5ccccn45)c3)no2)C1` [F31], with 54 nM; and `Cc1ccc(-c2noc([C@@H]3CC(F)(F)CN3S(C)(=O)=O)n2)cc1NC(=O)c1cnc2ccccn12` [F32], with 55 nM.
In the case of `COC(=O)N1CCC(c2nc(-c3ccc(C)c(NC(=O)c4cnc5ccccn45)c3)no2)CC1` [F33] it was 84 nM; in that of `Cc1ccc(-c2noc(C3CCN(S(C)(=O)=O)CC3)n2)cc1NC(=O)c1cnc2ccccn12` [F34], 95 nM.
Consider `Cc1ccc(-c2noc(C3CN(S(C)(=O)=O)CCO3)n2)cc1NC(=O)c1cnc2ccccn12` (centres unmarked) [F35], for which the IC50 turned out to be 66 nM.
`Cc1ccc(-c2noc([C@@H]3CCCN3S(C)(=O)=O)n2)cc1NC(=O)c1cnc2ccccn12` [F36]: the IC50 stood at 93 nM.
Regarding `Cc1ccc(-c2noc([C@H]3CN(S(C)(=O)=O)CCO3)n2)cc1NC(=O)c1cnc2ccccn12` [F37], the IC50 was 60 nM.
In the case of `Cc1ccc(-c2noc(C[C@@H]3CCN(S(C)(=O)=O)C3)n2)cc1NC(=O)c1cnc2ccccn12` [F38] it was 90 nM; in that of `Cc1ccc(-c2noc([C@@H]3CCCN(S(C)(=O)=O)C3)n2)cc1NC(=O)c1cnc2ccccn12` [F39], 49 nM.
Then `COC(=O)N1CCC[C@H]1Cc1nc(-c2ccc(C)c(NC(=O)c3cnc4ccccn34)c2)no1` [F40], with 94 nM.
In the case of `Cc1ccc(-c2noc(C[C@@H]3CCCN3S(C)(=O)=O)n2)cc1NC(=O)c1cnc2ccccn12` [F41] it was 92 nM; in that of `Cc1ccc(-c2noc(CN3CC(F)(F)C(F)(F)C3)n2)cc1NC(=O)c1cnc2ccccn12` [F42], 13 nM; in that of `Cc1ccc(-c2noc(C3CN(S(=O)(=O)C(F)F)C3)n2)cc1NC(=O)c1cnc2ccccn12` [F43], 24 nM.
For the compound `Cc1ccc(-c2noc(CC3CCCCO3)n2)cc1NC(=O)c1cnc2ccccn12` (centres unmarked) [F44], the IC50 is 17 nM.
For `O=C(Nc1cc(-c2noc(CN3CCC(F)(F)C3)n2)ccc1F)c1cnc2ccccn12` [F45], the IC50 was 90 nM.
As for `O=C(Nc1cc(-c2noc(CN3CCC(F)(F)CC3)n2)ccc1F)c1cnc2ccccn12` [F46], the IC50 was determined as 73 nM.
In the case of `Cc1ccc(-c2noc([C@@H]3CCN3S(=O)(=O)C(C)C)n2)cc1NC(=O)c1cnc2ccccn12` [F47], the IC50 worked out at 47 nM.
In the case of `COC(=O)N1CC(c2nc(-c3ccc(C)c(NC(=O)c4cnn5ccccc45)c3)no2)C1` [F48], the IC50 came to 80 nM.
Take `Cc1ccc(-c2noc(CC3CCCOC3)n2)cc1NC(=O)c1cnc2ccccn12` (centres unmarked) [F49]: the IC50 stood at 40 nM.
Then `Cc1ccc(-c2noc([C@H](C)N3CC(F)(F)C3)n2)cc1NC(=O)c1cnc2ccccn12` [F50], with 77 nM.
In the case of `Cc1ccc(-c2noc([C@H](C)N3CCC(F)(F)C3)n2)cc1NC(=O)c1cnc2ccccn12` [F51], the IC50 is 43 nM.
